In paper PMC5125025 (Science (New York, N.Y.), 2015):

Columns and labels:
[1] = biological target: RsTSPO A139T mutant (Cereibacter sphaeroides, UniProt Q9RFC8, A139T); test: Ligand binding affinity of purified RsTSPO A139T mutant; design: species or system Rhodobacter sphaeroides
[2] = tested on: RsTSPO WT; details: cited from earlier work

Chain of RsTSPO A139T mutant (Q9RFC8 whole entry A139T): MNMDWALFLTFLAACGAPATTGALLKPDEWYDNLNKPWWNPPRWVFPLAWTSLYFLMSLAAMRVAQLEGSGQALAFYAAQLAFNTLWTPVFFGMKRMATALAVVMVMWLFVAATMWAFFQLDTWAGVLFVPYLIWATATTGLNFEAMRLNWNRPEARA

SMILES | Kd [1] | affinities of RsTSPO for ligands (range in words) [2]
CCC(C)N(C)C(=O)c1cc2ccccc2c(-c2ccccc2Cl)n1 (stereo not drawn) [PK11195] | 42 ± 4 µM | high nanomolar to micromolar range
C=CC1=C(C)c2cc3[nH]c(cc4nc(cc5[nH]c(cc1n2)c(C)c5CCC(=O)O)C(CCC(=O)O)=C4C)c(C)c3C=C [PpIX, protoporphyrin IX] | 1.9 ± 0.3 µM | high nanomolar to micromolar range
CC(C)CCC[C@@H](C)[C@H]1CC[C@H]2[C@@H]3CC=C4C[C@@H](O)CC[C@]4(C)[C@H]3CC[C@]12C [cholesterol] | > 300 µM | high nanomolar to micromolar range
